Experimental data published in ChEMBL document CHEMBL3137667, “[Drug-induced liver injury; fourteenth updated edition of the bibliographic database of liver injuries and related drugs]” (Gastroenterol Clin Biol, 2004).

Columns and labels:
[1] = Highest frequency of moderate liver toxicity observed during clinical trials, expressed as a percentage. [column '% BIOL' in source]; details: human
[2] = Highest frequency of acute liver toxicity observed during clinical trials, expressed as a percentage. [column '% AIGUE' in source]; details: human
[3] = human, serum
[4] = human, serum; remark: listed apart in the source
[5] = human
[6] = human; remark: listed apart in the source
[7] = human; remark: listed apart in the source
[8] = human, serum, 4383 h
[9] = human; remark: listed apart in the source
[10] = human; remark: listed apart in the source
[11] = human; remark: listed apart in the source
[12] = human; remark: listed apart in the source
[13] = human; remark: listed apart in the source
[14] = human; remark: listed apart in the source
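For Hepatotoxicity (association with vascular disease) in this document: count of indexed literature references reporting vascular liver injury in humans, e.g. peliosis hepatitis, hepatic veno-occlusive disease or Budd-Chiari syndrome.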
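For Hepatotoxicity (benign tumour) in this document: value is a count of indexed literature references citing a benign tumour confirmed by histopathology.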
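For Hepatotoxicity (choleostasis) in this document: human cholestatic liver injury, shown by histopathology or by peak ALT or AST elevation over alkaline phosphatase ratio below 2, value counts indexed literature reports.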
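For Hepatotoxicity (chronic liver disease) in this document: chronic liver injury confirmed by histopathology or persistently raised serum aminotransferase activity beyond 6 months, value given as the count of indexed literature references.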
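For Hepatotoxicity (cirrhosis) in this document: value is a count of indexed literature references reporting cirrhosis confirmed by histopathology.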
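For Hepatotoxicity (cytolytic) in this document: human cytolytic liver injury, shown by histopathology or by a ratio above 5 of peak ALT or AST elevation to alkaline phosphatase elevation, value counts indexed references.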
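For Hepatotoxicity (granulomatous hepatitis) in this document: value is a count of indexed literature references reporting granulomatous liver disease confirmed by histopathology.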
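For Hepatotoxicity (malignant tumour) in this document: malignant tumour confirmed by histopathology, value gives the count of indexed literature references reporting it.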
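For Hepatotoxicity (severe hepatitis) in this document: human clinical data: severe hepatitis, meaning potentially life-threatening liver failure or clinically observed cases, the value counts how many indexed literature references report it.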
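For Hepatotoxicity (steatosis) in this document: steatosis confirmed by histopathology, value is the count of indexed references.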

Structure (SMILES) | Hepatotoxicity (moderate) [1] [%] | Hepatotoxicity (acute) [2] [%] | Hepatotoxicity (moderate) [3] | Hepatotoxicity (acute) [4] | Hepatotoxicity (cytolytic) [5] | Hepatotoxicity (choleostasis) [6] | Hepatotoxicity (severe hepatitis) [7] | Hepatotoxicity (chronic liver disease) [8] | Hepatotoxicity (cirrhosis) [9] | Hepatotoxicity (granulomatous hepatitis) [10] | Hepatotoxicity (association with vascular disease) [11] | Hepatotoxicity (steatosis) [12] | Hepatotoxicity (malignant tumour) [13] | Hepatotoxicity (benign tumour) [14] | Hepatotoxicity (moderate) ([1]; Liver) [%] | Hepatotoxicity (acute) ([2]; Liver) [%] | Hepatotoxicity (cytolytic) ([5]; Liver) | Hepatotoxicity (choleostasis) ([6]; Liver) | Hepatotoxicity (severe hepatitis) ([7]; Liver) | Hepatotoxicity (granulomatous hepatitis) ([10]; Liver)
CCN(CC)C(=O)N1CCN(C)CC1 [DIETHYLCARBAMAZINE] | 0 | 0 | 1 | 0 | 0 | 0 | 0 | 0 | 0 | 0 | 0 | 0 | 0 | 0 |  |  |  |  |  | 
C[C@H]1O[C@@H](O[C@H]2[C@@H](O)C[C@H](O[C@H]3[C@@H](O)C[C@H](O[C@H]4CC[C@@]5(C)[C@H](CC[C@@H]6[C@@H]5C[C@@H](O)[C@]5(C)[C@@H](C7=CC(=O)OC7)CC[C@]65O)C4)O[C@@H]3C)O[C@@H]2C)C[C@H](O)[C@@H]1O [DIGOXIN] | 8.3 | 0 | 1 | 0 | 0 | 0 | 0 | 0 | 0 | 0 | 0 | 0 | 0 | 0 |  |  |  |  |  | 
CN(C)CCCN1c2ccccc2C(C)(C)c2ccccc21 [DIMETACRINE] | 0 | 0 | 1 | 0 | 0 | 0 | 0 | 0 | 0 | 0 | 0 | 0 | 0 | 0 |  |  |  |  |  | 
CN(C)CCOC(c1ccccc1)c1ccccc1 [DIPHENHYDRAMINE] |  |  | 1 | 0 |  |  |  | 0 | 0 |  | 0 | 0 | 0 | 0 | 1.4 | 0 | 0 | 0 | 0 | 0
OC(CCCN1CCCCC1)(c1ccccc1)c1ccccc1 [DIPHENIDOL] | 0 | 0 | 0 | 1 | 0 | 0 | 0 | 0 | 0 | 0 | 0 | 0 | 0 | 0 |  |  |  |  |  | 
CCC(C)(C)NCC(O)COc1ccccc1C(=O)CCc1ccccc1 (stereo not drawn) [DIPRAFENONE] | 3.7 | 1.6 | 3 | 1 | 0 | 1 | 0 | 0 | 0 | 0 | 0 | 0 | 0 | 0 |  |  |  |  |  | 
CC[C@H]1OC(=O)[C@H](C)[C@@H](O[C@H]2C[C@@](C)(OC)[C@@H](O)[C@H](C)O2)[C@H](C)[C@@H](O[C@@H]2O[C@H](C)C[C@H](N(C)C)[C@H]2O)[C@](C)(O)C[C@@H](C)[C@@H]2N[C@@H](COCCOC)O[C@H]([C@H]2C)[C@]1(C)O [DIRITHROMYCIN] | 28.6 | 0 | 3 | 0 | 0 | 0 | 0 | 0 | 0 | 0 | 0 | 0 | 0 | 0 |  |  |  |  |  | 
